For series [1], the system named is HepG2-A16-CD81EGFP cells. The series can be described thus: cells. The note with it: Homo sapiens; for IC50: HepG2, read-out: Tox IC50; for inhibition at 50 µM: HepG2, read-out: Tox max inhibition (%) @ 50 uM.
The subject of series [2] is Plasmodium berghei (Pb-Luc) exoerythrocytic-stage parasites. The series can be described thus: microbe, parasite or virus in culture. Particulars: for IC50: read-out: PbLuc IC50, dose response, 1/3 dilutions, max conc. 10 or 50 uM, unit inferred.
Series [3] concerns Plasmodium cynomolgi exoerythrocytic-stage small (hypnozoites) and large (liver stage schizonts) parasites. The series can be described thus: P. cynomolgi liver assay in primary hepatocytes. The note with it: Plasmodium cynomolgi, Hepatocyte.
Series [4] relates to HepG2-A16-CD81EGFP cells.
The subject of series [5] is HepG2-A16-CD81EGFP cells. The series can be described thus: cells. The note with it: Homo sapiens, HepG2, read-out: % inhibition.
In series [6] the test system is HepG2-A16-CD81EGFP cells. The series can be described thus: cells. The note with it: Homo sapiens, HepG2, read-out: % inhibition. This is another data set of the same source.
In series [7] the target is QuantiLum Recombinant Luciferase (Photinus pyralis, UniProt P08659). The series can be described thus: Bioluminescence quantification of compound luciferase inhibition.
QuantiLum Recombinant Luciferase, sequence (P08659 whole entry): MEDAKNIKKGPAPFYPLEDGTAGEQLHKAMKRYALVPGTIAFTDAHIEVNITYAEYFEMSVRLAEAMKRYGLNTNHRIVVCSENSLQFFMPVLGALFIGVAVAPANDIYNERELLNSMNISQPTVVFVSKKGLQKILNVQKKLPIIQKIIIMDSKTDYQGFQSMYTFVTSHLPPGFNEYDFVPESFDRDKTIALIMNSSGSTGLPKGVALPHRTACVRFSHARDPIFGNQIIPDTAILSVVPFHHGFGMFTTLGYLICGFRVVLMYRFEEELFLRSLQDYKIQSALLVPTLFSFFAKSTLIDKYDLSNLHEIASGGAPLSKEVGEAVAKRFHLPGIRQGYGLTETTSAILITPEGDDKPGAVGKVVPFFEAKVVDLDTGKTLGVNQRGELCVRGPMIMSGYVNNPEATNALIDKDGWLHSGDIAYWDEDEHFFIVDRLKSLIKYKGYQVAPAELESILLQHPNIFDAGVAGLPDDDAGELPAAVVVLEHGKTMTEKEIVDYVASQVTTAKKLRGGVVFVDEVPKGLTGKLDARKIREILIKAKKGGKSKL
[8] abbreviates: HepG2, read-out: HepG2 Tox% @ 50 uM rep1.
Where [9] appears, read: read-out: Inhibition% @ 50 uM rep1.
Where [10] appears, read: read-out: Inhibition% @ 50 uM rep2.
[11] abbreviates: read-out: PbLuc max inhibition (%) @ 50 uM.
The mark [12] stands for this setting: read-out: % inhibition normalized to untreated control, Large.
Setting [13] is: read-out: % inhibition normalized to untreated control, Small.
The mark [14] stands for this setting: HepG2, read-out: HepG2 Tox% @ 50 uM rep2.

Where two headings read alike, the source gives them in different places. Some results are limits rather than exact numbers.

This is an account of results in article PMC4890880 (ACS infectious diseases, 2016).

For `O=C(Nc1ccc(-c2nc3cc(NC(=O)c4ccc(Cl)cc4)ccc3[nH]2)cc1)c1ccc(Cl)cc1` [MMV006962], the cytotoxicity at 50 µM in the series with HepG2-A16-CD81EGFP cells [1] (setting [8]) was determined as 96%. Further, the IC50 in the series on HepG2-A16-CD81EGFP cells [1] came out at 9200 nM; in series [2], 501 nM. The inhibition at 50 µM stood at 99% in the series with HepG2-A16-CD81EGFP cells [1], 103% in series [2] (setting [9]), 103% in series [2] (setting [10]) and 99% in series [2] (setting [11]). Besides, the values for the inhibition at 0.1 µM in series [3] (setting [12]) and in series [3] (setting [13]) were 34% and -8%, respectively. In addition, the inhibition at 1 µM was 25% in series [3] (setting [12]) and 11% in series [3] (setting [13]). Moreover, the inhibition at 10 µM in series [3] (setting [12]) turned out to be 10%; in series [3] (setting [13]) it was 17%.

Turning to `CN1CCN(c2c3c(c(C#N)c4nc5ccccc5n24)CCC3)CC1` [MMV008127], the “HepG2 Tox% @ 50 uM rep2” value with HepG2-A16-CD81EGFP cells [4] (human, 50 uM) was -9%. Besides, the inhibition at 50 µM was 28% in series [2] (setting [9]), -16% in series [2] (setting [10]), -6.02% in the series with HepG2-A16-CD81EGFP cells [5] and -9.23% in the series on HepG2-A16-CD81EGFP cells [6].

Turning to `Cc1cc(C)cc(Nc2cc(C)nc3nc(C(F)(F)F)nn23)c1` [MMV011259], the “HepG2 Tox% @ 50 uM rep1” value with HepG2-A16-CD81EGFP cells [4] (human, 50 uM) was determined as 30%. The inhibition at 50 µM in series [2] (setting [9]) worked out at 100%; in series [2] (setting [10]) it was 99%; in the series on HepG2-A16-CD81EGFP cells [5], 29.5%; with HepG2-A16-CD81EGFP cells [6], 54.7%.

Turning to `CCOC(=O)C1CCN(C(=O)CN2C(=O)c3ccccc3C2c2c[nH]c3ccccc23)CC1` (stereo not drawn) [MMV011576], the “HepG2 Tox% @ 50 uM rep1” value in the series with HepG2-A16-CD81EGFP cells [4] (human, 50 uM) is given as -19%. For the same compound, the “HepG2 Tox% @ 50 uM rep2” value in the series on HepG2-A16-CD81EGFP cells [4] (human, 50 uM) is listed as -12%. The inhibition at 50 µM in series [2] (setting [9]) was 41%; in series [2] (setting [10]) it was 58%; in the series on HepG2-A16-CD81EGFP cells [5], -18.5%; in the series on HepG2-A16-CD81EGFP cells [6], -12.2%.

As to `COc1ccccc1CNC(=O)CCn1c(=O)[nH]c2ccsc2c1=O` [MMV019066], the cytotoxicity at 50 µM with HepG2-A16-CD81EGFP cells [1] (setting [8]) is -14%; with HepG2-A16-CD81EGFP cells [1] (setting [14]), -5.32%. Also, the IC50 in the series on HepG2-A16-CD81EGFP cells [1] was greater than 10000 nM; in series [2], 56.1 nM; in series [7], greater than 20000 nM. For the same compound, the inhibition at 10 µM in the series on HepG2-A16-CD81EGFP cells [1] (HepG2, read-out: Tox max inhibition (%) @ 10 uM) was -2.17%; in series [2] (read-out: PbLuc max inhibition (%) @ 10 uM), 104%; in series [3] (setting [12]) it was 5%; in series [3] (setting [13]), 3%. The inhibition at 50 µM in series [2] (setting [9]) is 94%; in series [2] (setting [10]), 95%. For the same compound, the inhibition at 0.1 µM in series [3] (setting [12]) was found to be 3%; in series [3] (setting [13]), 10%. Moreover, the inhibition at 1 µM is -2% in series [3] (setting [12]) and 11% in series [3] (setting [13]). In series [7] (read-out: LucInhib max inhibition), the Emax is 21%.

For `CCN1CCN(c2cc(C)c3cc(NC(=O)c4ccc(OC)c(OC)c4)ccc3n2)CC1` [MMV019074], the “HepG2 Tox% @ 50 uM rep2” value with HepG2-A16-CD81EGFP cells [4] (human, 50 uM) came out at 100%. For the same compound, the inhibition at 50 µM is 104% in series [2] (setting [9]), 104% in series [2] (setting [10]), 98.4% in the series with HepG2-A16-CD81EGFP cells [5] and 100% with HepG2-A16-CD81EGFP cells [6].

On to `Cc1cc(NC(=O)c2cccc(C(F)(F)F)c2)n(-c2nc(-c3ccc4c(c3)OCO4)cs2)n1` [MMV396681], for which the “HepG2 Tox% @ 50 uM rep1” value with HepG2-A16-CD81EGFP cells [4] (human, 50 uM) is -15%. In the series on HepG2-A16-CD81EGFP cells [4] (human, 50 uM), the “HepG2 Tox% @ 50 uM rep2” value was -14%. Also, the inhibition at 50 µM is 1.11% in series [2] (setting [9]), -36% in series [2] (setting [10]), -14.6% in the series on HepG2-A16-CD81EGFP cells [5] and -14.2% in the series on HepG2-A16-CD81EGFP cells [6].

Take `COc1cccc(C2(C)Nc3ccccc3-c3nc4ccccc4n32)c1` (stereo not drawn) [MMV396719]: the “HepG2 Tox% @ 50 uM rep2” value in the series on HepG2-A16-CD81EGFP cells [4] (human, 50 uM) stood at 100%. Also, the inhibition at 50 µM was determined as 104% in series [2] (setting [9]), 106% in series [2] (setting [10]), 97% in the series with HepG2-A16-CD81EGFP cells [5] and 99.7% with HepG2-A16-CD81EGFP cells [6].

As to `COc1ccc(C(=O)Nc2ccc(Cl)cc2C(=O)Nc2ccncc2)cc1` [MMV665799], in the series on HepG2-A16-CD81EGFP cells [4] (human, 50 uM), the “HepG2 Tox% @ 50 uM rep1” value was -8%. The “HepG2 Tox% @ 50 uM rep2” value with HepG2-A16-CD81EGFP cells [4] (human, 50 uM) is given as -10%. Besides, the inhibition at 50 µM in series [2] (setting [9]) was 67%; in series [2] (setting [10]) it was 39%; in the series on HepG2-A16-CD81EGFP cells [5], -8.2%; with HepG2-A16-CD81EGFP cells [6] it was -10.4%.

Regarding `O=C(Nc1cccc(C(F)(F)F)c1)c1cc(Cl)ccc1O` [MMV665807], the cytotoxicity at 50 µM is 98% in the series on HepG2-A16-CD81EGFP cells [1] (setting [8]) and 99% in the series on HepG2-A16-CD81EGFP cells [1] (setting [14]). Moreover, the figures for the IC50 (with HepG2-A16-CD81EGFP cells [1]; in series [2]) were 910 nM and 210 nM, respectively. Besides, the inhibition at 50 µM with HepG2-A16-CD81EGFP cells [1] amounted to 94%; in series [2] (setting [9]), 103%; in series [2] (setting [10]), 103%; in series [2] (setting [11]), 101%. In addition, the results for the inhibition at 0.1 µM in series [3] (setting [12]) and in series [3] (setting [13]) were 6% and 17%, respectively. Besides, the inhibition at 1 µM was 10% in series [3] (setting [12]) and 34% in series [3] (setting [13]). For the same compound, the inhibition at 10 µM in series [3] (setting [12]) came to 12%; in series [3] (setting [13]) it was 24%.

Take `CCOC(=O)c1c(NC(=O)c2ccccc2)sc2c(O)c(CN(CC)CC)ccc12` [MMV665831]: the “HepG2 Tox% @ 50 uM rep1” value in the series with HepG2-A16-CD81EGFP cells [4] (human, 50 uM) came out at 27%. The inhibition at 50 µM in series [2] (setting [9]) was found to be 96%; in series [2] (setting [10]), 70%; in the series on HepG2-A16-CD81EGFP cells [5] it was 26.5%; with HepG2-A16-CD81EGFP cells [6] it was 34.3%.

Consider `CCCc1cc(O)c2c3c(c(=O)oc2c1)CN(C)CC3` [MMV665841], for which the “HepG2 Tox% @ 50 uM rep1” value in the series on HepG2-A16-CD81EGFP cells [4] (HepG2, 50 uM, replicate 1) is listed as 11%. In addition, the “HepG2 Tox% @ 50 uM rep2” value with HepG2-A16-CD81EGFP cells [4] (HepG2, 50 uM, replicate 2) amounted to 26%. The inhibition at 50 µM worked out at 83% in series [2] (setting [9]), 44% in series [2] (setting [10]), 10.6% with HepG2-A16-CD81EGFP cells [5] and 26.3% in the series with HepG2-A16-CD81EGFP cells [6].

As to `COc1ccc(-c2nonc2NC(=O)c2cccc(C)c2)cc1OC` [MMV665890], the “HepG2 Tox% @ 50 uM rep2” value with HepG2-A16-CD81EGFP cells [4] (human, 50 uM) is -3%. The inhibition at 50 µM in series [2] (setting [9]) was 7%; in series [2] (setting [10]), 13%; in the series on HepG2-A16-CD81EGFP cells [5], -1.53%; with HepG2-A16-CD81EGFP cells [6] it was -2.92%.

`O=C(Nc1ccccc1O)c1ccc(-c2ccc(Cl)cc2Cl)o1` [MMV665948]: the “HepG2 Tox% @ 50 uM rep1” value in the series with HepG2-A16-CD81EGFP cells [4] (human, 50 uM) is recorded as 15%. Besides, the inhibition at 50 µM in series [2] (setting [9]) is 8%; in series [2] (setting [10]) it was -61%; in the series with HepG2-A16-CD81EGFP cells [5], 15.3%; with HepG2-A16-CD81EGFP cells [6], -7.03%.

Consider `CCCC(c1nnnn1C1CCCCC1)N1CCN(C(=O)c2ccco2)CC1` (stereo not drawn) [MMV666093], for which, in the series with HepG2-A16-CD81EGFP cells [4] (human, 50 uM), the “HepG2 Tox% @ 50 uM rep1” value was -6%. Moreover, the inhibition at 50 µM was 52% in series [2] (setting [9]), 19% in series [2] (setting [10]), -5.78% with HepG2-A16-CD81EGFP cells [5] and -2.45% with HepG2-A16-CD81EGFP cells [6].

As to `CN(C)c1ccc(-c2nc3cc(N)ccc3[nH]2)cc1` [MMV666102], in the series with HepG2-A16-CD81EGFP cells [4] (human, 50 uM), the “HepG2 Tox% @ 50 uM rep1” value turned out to be 29%. Also, the inhibition at 50 µM is 97% in series [2] (setting [9]), 94% in series [2] (setting [10]), 29.4% in the series with HepG2-A16-CD81EGFP cells [5] and 32.6% in the series on HepG2-A16-CD81EGFP cells [6].

For the compound `COCCN(C(=O)Cc1cccs1)C(C(=O)NCc1ccc(OC)cc1)c1ccc(C(C)C)cc1` (stereo not drawn) [MMV666105], the “HepG2 Tox% @ 50 uM rep2” value with HepG2-A16-CD81EGFP cells [4] (human, 50 uM) stood at 100%. Further, the inhibition at 50 µM in series [2] (setting [9]) came out at 104%; in series [2] (setting [10]) it was 105%; in the series on HepG2-A16-CD81EGFP cells [5] it was 98.8%; with HepG2-A16-CD81EGFP cells [6], 99.9%.

By inhibition is commonly meant the relative decrease from the control value, in per cent.
